Data reported in patent US8907089B2, “Fused heterocyclic ring derivative and use thereof” (Takeda Pharmaceutical Company Limited, priority 2009, dated 2014).

Tested on: NIH-3T3/Gli reporter cells (Hedgehog signal, Gli reporter luciferase; Smo inhibitory action)
Assay: Gli reporter luciferase assay in NIH-3T3/Gli reporter cells stimulated with mouse Shh-N end fragment
Type: cell-based
Conditions: NIH3T3; 1 μM compound; NIH-3T3/Gli reporter cells with mouse Shh-N end fragment culture supernatant, 48 hr; luciferase activity, control without compound as 100; read-out: inhibition rate (%) at 1 μM
Excerpt: Inhibition of the Hedgehog signal transduction system can be measured, for example, by quantifying a decrease in the expression level of a reporter gene connected to the downstream of the Gli binding site based on the fluorescence intensity according to the following Experimental Example 1. Alternatively, it can be measured by quantifying the expression of Gli-1 mRNA in a cell extract by quantitative PCR method and the like. A compound that inhibits Hedgehog signal targets Smo, which can be confirmed, for example, by binding fluorescence-labeled Cyclopamine and a test compound to cells expressing Smo, measuring the fluorescence level of the cell, and comparing the value with that without addition of a test compound to find a decrease.
Gli reporter plasmid was constructed by inserting 8×Gli-binding site and chicken 8-crystalline promoter into the upstream of luc+ of pGL3 (Promega).
prepared in reference to the base sequence described in GenBank accession No.; X02187, and chicken genome DNA (Clontech) as a template. PCR reaction was performed using Pfu Turbo (Stratagene) and following the attached protocol. The obtained 108 bp fragment was digested with restriction enzymes BglII and HindIII, and inserted into BglII-HindIII site of pGL3 to give plasmid pGL3/δ-cry promoter.
As 8×Gli-binding site, a sequence containing eight 9-bp Gli bound consensus sequences (GACCACCCA) described in Yoon et al., J. Biol. Chem., vol. 273, pages 3496-3501 (1998) was prepared from synthetic DNA. That is, two synthetic DNAs,
were heat treated at 95° C. for 2 minutes, and incubated at 37° C. for 1 hr for annealing to give a double stranded DNA of the above-mentioned two synthetic DNAs. The obtained double stranded DNA was digested with restriction enzymes BglII and KpnI, and the obtained DNA fragment was inserted into BglII-KpnI site of pGL3/8-cry promoter to construct plasmid pGL3/8-cry promoter, 8×Gli binding site, i.e., Gli reporter plasmid. 2. Construction of plasmid for expression of mouse Shh-N end Fragment
HEK293 cells were grown in D-MEM medium (Invitrogen) containing 10% fetal bovine serum in a 10 cm dish and pcDNA3.1/mShh-N was introduced into the cells using FuGENE6 (Roche Applied Science). Thereafter, the HEK293 cells were cultured in a carbon dioxide gas incubator at 37° C. for 24 hours, and the medium was exchanged with D-MEM medium (Invitrogen) containing 2% fetal bovine serum. After culturing for 48 hr, a culture supernatant containing recombinant type mouse Shh-N end fragment was obtained by filtration using a filter ([…]).
Using D-MEM (Invitrogen) containing 10% fetal bovine serum, expression plasmid pcDNA3.1 and Gli reporter plasmid (pGL3/8-cry promoter, 8×Gli binding site) produced by the method of Experimental Example 1 were introduced into NIH-3T3 cells grown in a 10 cm dish by the use of FuGENE6 (Roche Applied Science).
After culture for 24 hr, the cells were recovered, suspended in D-MEM medium containing 10% fetal bovine serum and supplemented with Geneticin (Life Technologies Oriental, Inc.) to a final concentration of 500 μg/ml, diluted to 10^4 cells/ml, plated on a 96 well plate, and cultured in a carbon dioxide gas incubator at 37° C. to give Geneticin resistant transformed cell line.
The obtained transformed cell line was cultured in a 96 well plate, mouse Shh-N end fragment obtained in Experimental Example 3 was added, and NIH-3T3/Gli reporter cell, which is a cell line capable of induction of luciferase expression, was selected.
NIH-3T3/Gli reporter cells cultured in D-MEM (Invitrogen) containing 10% fetal bovine serum were plated in a 96 well white plate at 1×10^4 cells/well, and cultured overnight in a carbon dioxide gas incubator at 37° C. The medium was removed, a compound (50 μl) and culture supernatant of mouse Shh-N end fragment-expressing HEK293 (D-MEM medium containing 2% fetal bovine serum, 50 μl) were added, and the cells were cultured for 48 hr in a carbon dioxide gas incubator at 37° C. […]

SMILES	inhibition at 1 µM
CCc1cc2c(c(OCC(F)(F)F)c(C(=O)NC3CCN(C(=O)CO)CC3)n2C)c(=O)n1-c1ccccc1 [Example 1, 6-ethyl-N-[1-(hydroxyacetyl)piperidin-4-yl]-1-methyl-4-oxo-5-phenyl-3-(2,2,2-trifluoroethoxy)-4,5-dihydro-1H-pyrrolo[3,2-c]pyridine-2-carboxamide]	98%
CCOc1c(C(=O)NC2CCN(C(=O)CO)CC2)n(C)c2cc(CC)n(-c3ccccc3)c(=O)c12 [Example 3, 3-ethoxy-6-ethyl-N-[1-(hydroxyacetyl)piperidin-4-yl]-1-methyl-4-oxo-5-phenyl-4,5-dihydro-1H-pyrrolo[3,2-c]pyridine-2-carboxamide]	97%
CCc1cc2c(c(OC(C)C)c(C(=O)NC3CCN(C(=O)CO)CC3)n2C)c(=O)n1-c1ccccc1 [Example 4, 6-ethyl-N-[1-(hydroxyacetyl)piperidin-4-yl]-1-methyl-3-(1-methylethoxy)-4-oxo-5-phenyl-4,5-dihydro-1H-pyrrolo[3,2-c]pyridine-2-carboxamide]	97%
Cc1ccc(-n2c(C)cc3c(c(OCC(F)(F)F)c(C(=O)NC4CCN(C(=O)CO)CC4)n3C)c2=O)cc1 [Example 8, N-[1-(hydroxyacetyl)piperidin-4-yl]-1,6-dimethyl-5-(4-methylphenyl)-4-oxo-3-(2,2,2-trifluoroethoxy)-4,5-dihydro-1H-pyrrolo[3,2-c]pyridine-2-carboxamide]	97%
CCc1cc2c(c(OCC(F)(F)F)c(C(=O)NC3CCN(C(=O)CO)CC3)n2C)c(=O)n1-c1ccc(C(F)(F)F)cc1 [Example 9, 6-ethyl-N-[1-(hydroxyacetyl)piperidin-4-yl]-1-methyl-4-oxo-3-(2,2,2-trifluoroethoxy)-5-[4-(trifluoromethyl)phenyl]-4,5-dihydro-1H-pyrrolo[3,2-c]pyridine-2-carboxamide]	97%
CCOc1c(C(=O)NC2CCN(C(=O)CO)CC2)n(C)c2cc(CC)n(-c3ccc(C(F)(F)F)cc3)c(=O)c12 [Example 10, 3-ethoxy-6-ethyl-N-[1-(hydroxyacetyl)piperidin-4-yl]-1-methyl-4-oxo-5-[4-(trifluoromethyl)phenyl]-4,5-dihydro-1H-pyrrolo[3,2-c]pyridine-2-carboxamide]	96%
CCc1cc2c(c(OC(C)C)c(C(=O)NC3CCN(C(=O)CO)CC3)n2C)c(=O)n1-c1ccc(C(F)(F)F)cc1 [Example 11, 6-ethyl-N-[1-(hydroxyacetyl)piperidin-4-yl]-1-methyl-3-(1-methylethoxy)-4-oxo-5-[4-(trifluoromethyl)phenyl]-4,5-dihydro-1H-pyrrolo[3,2-c]pyridine-2-carboxamide]	96%
CCc1cc2c(c(OCC(F)(F)F)c(C(=O)NC3CCN(C(=O)CO)CC3)n2C)c(=O)n1-c1ccc(OC)cc1 [Example 12, 6-ethyl-N-[1-(hydroxyacetyl)piperidin-4-yl]-5-(4-methoxyphenyl)-1-methyl-4-oxo-3-(2,2,2-trifluoroethoxy)-4,5-dihydro-1H-pyrrolo[3,2-c]pyridine-2-carboxamide]	97%
CCOc1c(C(=O)NC2CCN(C(=O)CO)CC2)n(C)c2cc(CC)n(-c3ccc(OC)cc3)c(=O)c12 [Example 13, 3-ethoxy-6-ethyl-N-[1-(hydroxyacetyl)piperidin-4-yl]-5-(4-methoxyphenyl)-1-methyl-4-oxo-4,5-dihydro-1H-pyrrolo[3,2-c]pyridine-2-carboxamide]	97%
CCc1cc2c(c(OC(C)C)c(C(=O)NC3CCN(C(=O)CO)CC3)n2C)c(=O)n1-c1ccc(OC)cc1 [Example 14, 6-ethyl-N-[1-(hydroxyacetyl)piperidin-4-yl]-5-(4-methoxyphenyl)-1-methyl-3-(1-methylethoxy)-4-oxo-4,5-dihydro-1H-pyrrolo[3,2-c]pyridine-2-carboxamide]	96%
CCc1cc2c(c(OCC(F)(F)F)c(C(=O)NC3CCN(C(=O)CO)CC3)n2C)c(=O)n1-c1cccc(F)c1 [Example 15, 6-ethyl-5-(3-fluorophenyl)-N-[1-(hydroxyacetyl)piperidin-4-yl]-1-methyl-4-oxo-3-(2,2,2-trifluoroethoxy)-4,5-dihydro-1H-pyrrolo[3,2-c]pyridine-2-carboxamide]	99%
CCOc1c(C(=O)NC2CCN(C(=O)CO)CC2)n(C)c2cc(CC)n(-c3cccc(F)c3)c(=O)c12 [Example 16, 3-ethoxy-6-ethyl-5-(3-fluorophenyl)-N-[1-(hydroxyacetyl)piperidin-4-yl]-1-methyl-4-oxo-4,5-dihydro-1H-pyrrolo[3,2-c]pyridine-2-carboxamide]	96%
CCc1cc2c(c(OC(C)C)c(C(=O)NC3CCN(C(=O)CO)CC3)n2C)c(=O)n1-c1cccc(F)c1 [Example 17, 6-ethyl-5-(3-fluorophenyl)-N-[1-(hydroxyacetyl)piperidin-4-yl]-1-methyl-3-(1-methylethoxy)-4-oxo-4,5-dihydro-1H-pyrrolo[3,2-c]pyridine-2-carboxamide]	95%
CCc1cc2c(c(OCC(F)(F)F)c(C(=O)NC3CCN(C(=O)CO)CC3)n2C)c(=O)n1-c1ccc(F)cc1 [Example 20, 6-ethyl-5-(4-fluorophenyl)-N-[1-(hydroxyacetyl)piperidin-4-yl]-1-methyl-4-oxo-3-(2,2,2-trifluoroethoxy)-4,5-dihydro-1H-pyrrolo[3,2-c]pyridine-2-carboxamide]	96%
CCOc1c(C(=O)NC2CCN(C(=O)CO)CC2)n(C)c2cc(CC)n(-c3ccc(F)cc3)c(=O)c12 [Example 21, 3-ethoxy-6-ethyl-5-(4-fluorophenyl)-N-[1-(hydroxyacetyl)piperidin-4-yl]-1-methyl-4-oxo-4,5-dihydro-1H-pyrrolo[3,2-c]pyridine-2-carboxamide]	96%
CCc1cc2c(c(OC(C)C)c(C(=O)NC3CCN(C(=O)CO)CC3)n2C)c(=O)n1-c1ccc(F)cc1 [Example 22, 6-ethyl-5-(4-fluorophenyl)-N-[1-(hydroxyacetyl)piperidin-4-yl]-1-methyl-3-(1-methylethoxy)-4-oxo-4,5-dihydro-1H-pyrrolo[3,2-c]pyridine-2-carboxamide]	97%
